In brackets after ≈: the same amount, converted by molar mass. Starred links: 1 amine or outer side, 2 acyl side, 3 side chain; linkers in the order of their positions; H or OH if unused. Positions of bridges follow the written chain, without caps; N, C: chain ends. Non-standard residues stand in square brackets, D forms with d. Residues, ends and D or L forms follow the SMILES beside them. *: point of attachment. X1 = NC1=N[C@@H]([C@H](N[*:1])C(=O)[*:2])C[C@H](O)N1; ΔAla(Z-3-ureido) = NC(=O)N/C=C(\N)C(=O)O; β3hOrn = NCCC[C@H](N)CC(=O)*; Dap = NC[C@H](N)C(=O)O
Experiments:
[1] = system: Mycobacterium tuberculosis; test: Antimycobacterial activity against Mycobacterium tuberculosis harbouring embCAB gene; assay type: functional
[2] = system: Mycobacterium tuberculosis; test: microbe, parasite or virus in culture
[3] = system: Mycobacterium tuberculosis; test: Antimycobacterial activity against Mycobacterium tuberculosis harbouring katG gene; assay type: functional
[4] = system: Mycobacterium tuberculosis; test: microbe, parasite or virus in culture; remark: listed apart in the source
[5] = system: Mycobacterium tuberculosis; test: Antimycobacterial activity against Mycobacterium tuberculosis Rv2163c harbouring ftsI gene; assay type: functional
[6] = system: Mycobacterium tuberculosis; test: Antimycobacterial activity against Mycobacterium tuberculosis Rv2163c harbouring pbpB gene; assay type: functional
[7] = system: Mycobacterium tuberculosis; test: Antimycobacterial activity against Mycobacterium tuberculosis harbouring rrs gene; assay type: functional
[8] = system: Mycobacterium tuberculosis; test: Antimycobacterial activity against Mycobacterium tuberculosis Rv0006 harbouring gyrA gene; assay type: functional
[9] = system: Mycobacterium tuberculosis; test: Antimycobacterial activity against Mycobacterium tuberculosis Rv0005 harbouring gyrB gene; assay type: functional
[10] = system: Mycobacterium tuberculosis; test: Antimycobacterial activity against multi-drug resistant Mycobacterium tuberculosis; assay type: functional
[11] = system: Mycobacterium tuberculosis; test: Antimycobacterial activity against Mycobacterium tuberculosis Rv3790 harbouring DprE1 gene; assay type: functional
[12] = system: Mycobacterium tuberculosis; test: Antimycobacterial activity against Mycobacterium tuberculosis Rv1302 harbouring rfe gene; assay type: functional
[13] = system: Mycobacterium tuberculosis; test: Antimycobacterial activity against Mycobacterium tuberculosis Rv1302 harbouring wecA gene; assay type: functional
[14] = system: Mycobacterium tuberculosis; test: Antimycobacterial activity against Mycobacterium tuberculosis harbouring vph gene; assay type: functional
[15] = system: Mycobacterium tuberculosis; test: Antimycobacterial activity against multi-drug resistant Mycobacterium tuberculosis clinical isolates; assay type: functional
[16] = system: Mycobacterium tuberculosis; test: Antimycobacterial activity against extensively drug resistant Mycobacterium tuberculosis clinical isolates; assay type: functional
[17] = system: Mycobacterium tuberculosis; test: Antimycobacterial activity against Mycobacterium tuberculosis Rv0701 harbouring rplC gene; assay type: functional
[18] = system: Mycobacterium tuberculosis; test: Antimycobacterial activity against Mycobacterium tuberculosis Rv0667 harbouring rpoB gene; assay type: functional
[19] = system: Mycobacterium tuberculosis; test: Antimycobacterial activity against Mycobacterium tuberculosis Rv2196 harbouring qcrB gene; assay type: functional
[20] = system: Mycobacterium tuberculosis; test: Antimycobacterial activity against Mycobacterium tuberculosis Rv0050 harbouring ponA1 gene; assay type: functional
[21] = system: Mycobacterium tuberculosis; test: Antimycobacterial activity against Mycobacterium tuberculosis Rv2068c harbouring blaC gene; assay type: functional
[22] = system: Mycobacterium tuberculosis; test: Antimycobacterial activity against Mycobacterium tuberculosis Rv0706 harbouring rplV gene; assay type: functional
[23] = system: Mycobacterium tuberculosis; test: Antimycobacterial activity against rifampicin-resistant Mycobacterium tuberculosis; assay type: functional
[24] = system: Mycobacterium tuberculosis; test: Antimycobacterial activity against Mycobacterium tuberculosis Rv0503c harbouring cmaA2 gene; assay type: functional

SMILES: CC[C@@H](CO)NCCN[C@@H](CC)CO [ETHAMBUTOL]
- MIC [1]: 1000 ng/mL (≈ 4890 nM)

SMILES: NNC(=O)c1ccncc1 [ISONIAZID]
- MIC [2]: 10 ng/mL (≈ 72.9 nM)
- MIC [3]: 10 ng/mL (≈ 72.9 nM)
- MIC [4]: 10 ng/mL (≈ 72.9 nM)

SMILES: C[C@@H](O)[C@H]1C(=O)N2C(C(=O)O)=C(SCCNC=N)C[C@H]12 [IMIPENEM ANHYDROUS]
- MIC [5]: 160 ng/mL (≈ 534 nM)
- MIC [6]: 160 ng/mL (≈ 534 nM)

SMILES: NC[C@H]1O[C@H](O[C@H]2[C@H](O)[C@@H](O[C@H]3O[C@H](CO)[C@@H](O)[C@H](N)[C@H]3O)[C@H](N)C[C@@H]2N)[C@H](O)[C@@H](O)[C@@H]1O [KANAMYCIN]
- MIC [7]: 1000 ng/mL (≈ 2060 nM)

SMILES: COc1c(N2CCNC(C)C2)c(F)cc2c(=O)c(C(=O)O)cn(C3CC3)c12 (centres undefined) [GATIFLOXACIN]
- MIC [8]: 1000 ng/mL (≈ 2660 nM)
- MIC [9]: 1000 ng/mL (≈ 2660 nM)

SMILES: CC1COc2c(N3CCN(C)CC3)c(F)cc3c(=O)c(C(=O)O)cn1c23 (centres undefined) [OFLOXACIN]
- MIC [8]: 125 ng/mL (≈ 346 nM)
- MIC [9]: 125 ng/mL (≈ 346 nM)

SMILES: O=C1c2ccccc2-n2c1nc1ccccc1c2=O [TRYPTANTHRIN]
- MIC [10]: 0.016 ng/mL (≈ 0.0645 nM)

SMILES: O=c1nc(N2CCN(CC3CCCCC3)CC2)sc2c([N+](=O)[O-])cc(C(F)(F)F)cc12 [MACOZINONE]
- MIC [11]: 0.3 ng/mL (≈ 0.657 nM)

SMILES: CCCCc1ccc(NC(=O)C2=CCN(C)[C@@H]([C@H](O[C@@H]3O[C@H](CN)[C@@H](O)[C@H]3O)[C@H]3O[C@@H](n4ccc(=O)[nH]c4=O)[C@H](O)[C@@H]3O)C(=O)N2C)cc1
- MIC [12]: 1560 ng/mL (≈ 2270 nM)
- MIC [13]: 1560 ng/mL (≈ 2270 nM)

SMILES: NCCC[C@H](N)CC(=O)N[C@H]1CNC(=O)[C@H]([C@H]2C[C@H](O)NC(N)=N2)NC(=O)/C(=C/NC(N)=O)NC(=O)[C@H](CO)NC(=O)[C@H](CO)NC1=O [VIOMYCIN] (β3hOrn-[Dap]SS[ΔAla(Z-3-ureido)][X1]; lactam 1-C)
- MIC [14]: 4000 ng/mL (≈ 5830 nM)

SMILES: C[C@H]1COC2(CCN(c3nc(=O)c4cc(C(F)(F)F)cc([N+](=O)[O-])c4s3)CC2)O1 [BTZ-043]
- MIC [15]: 0.1 ng/mL (≈ 0.232 nM)
- MIC [11]: 1 ng/mL (≈ 2.32 nM)
- MIC [16]: 1 ng/mL (≈ 2.32 nM)

SMILES: O=C([C@@H](O)CO)N1CC=C(c2c(F)cc(N3C[C@H](COc4ccon4)OC3=O)cc2F)CC1 [POSIZOLID]
- MIC [17]: 250 ng/mL (≈ 537 nM)

SMILES: CO[C@H]1/C=C/O[C@@]2(C)Oc3c(C)c(O)c4c(c3C2=O)C2=NC3(CCN(CC(C)C)CC3)NC2=C(NC(=O)/C(C)=C\C=C\[C@H](C)[C@H](O)[C@@H](C)[C@@H](O)[C@@H](C)[C@H](OC(C)=O)[C@@H]1C)C4=O [RIFABUTIN]
- MIC [18]: 15 ng/mL (≈ 17.7 nM)

SMILES: CCc1nc2ccc(Cl)cn2c1C(=O)NCc1ccc(N2CCC(c3ccc(OC(F)(F)F)cc3)CC2)cc1 [TELACEBEC]
- MIC [19]: 2.7 nM (≈ 1.5 ng/mL)

SMILES: CC1(C)S[C@@H]2[C@H](NC(=O)[C@H](N)c3ccc(O)cc3)C(=O)N2[C@H]1C(=O)O [AMOXICILLIN]
- MIC [20]: 10000 ng/mL (≈ 27400 nM)
- MIC [21]: 10000 ng/mL (≈ 27400 nM)

SMILES: CC[C@H]1OC(=O)[C@H](C)[C@@H](O[C@H]2C[C@@](C)(OC)[C@@H](O)[C@H](C)O2)[C@H](C)[C@@H](O[C@@H]2O[C@H](C)C[C@H](N(C)C)[C@H]2O)[C@](C)(OC)C[C@@H](C)C(=O)[C@H](C)[C@@H](O)[C@]1(C)O [CLARITHROMYCIN]
- MIC [22]: 1000 ng/mL (≈ 1340 nM)

SMILES: COc1ccc2c3c(c4cc(OC)c(OC)cc4c2c1)CN1CCCC1C3 (stereo not drawn) [(+/-)-DEOXYTYLOPHORININE]
- MIC [23]: 6250 ng/mL (≈ 17200 nM)

SMILES: CC(=O)Nc1ccc(/C=N/NC(N)=S)cc1 [AMITHIOZONE]
- MIC [24]: 100 ng/mL (≈ 423 nM)

SMILES: CC1(C)C[C@@H]1C(=O)N/C(=C\CCCCSC[C@H](N)C(=O)O)C(=O)O [CILASTATIN]
- MIC [5]: 160 ng/mL (≈ 446 nM)
- MIC [6]: 160 ng/mL (≈ 446 nM)

Reference: ChEMBL document CHEMBL5260811, “Drug development against tuberculosis: Impact of alkaloids” (Eur J Med Chem, 2017)
